Reference: the NIST ThermoML archive (doi:10.1016/j.fluid.2007.07.017)

Assay: xn = mol fraction of the nth substance listed
Conditions: Liquid, Vibrating tube method

C=C [ethene] + CCCCO
Conditions	mass density [kg/m3]
283.65 K, x1 = 0.17	781.4
283.65 K, x1 = 0.224	767.7
283.65 K, x1 = 0.322	743.7
283.65 K, x1 = 0.401	718.9
283.65 K, x1 = 0.47	695.8
283.65 K, x1 = 0.545	660.9
283.65 K, x1 = 0.98	323.2
283.65 K, x1 = 0.99	296.6
283.65 K, x1 = 0.994	287
290.8 K, x1 = 0.206	768.3
290.8 K, x1 = 0.265	752.1
290.8 K, x1 = 0.339	732
290.8 K, x1 = 0.43	707.5
290.8 K, x1 = 0.528	664.6
290.8 K, x1 = 0.622	624.4
290.8 K, x1 = 0.655	601.6
290.8 K, x1 = 0.691	585
290.8 K, x1 = 0.745	527.5
